Read-outs that look alike come from different tables or passages of the source.
Key:
CXCR4 [1] = target: T1, CXCR4 (Homo sapiens, UniProt P61073); assay: Chemokine (CXCL12-AF647) binding inhibition assay, Jurkat cells expressing CXCR4; conditions: CXCL12-AF647 25 ng/ml, read-out: IC50 CXCL-12 binding Jurkat
Procedure: Jurkat cells expressing CXCR4 were washed once with assay buffer (Hanks' balanced salt solution with 20 mM HEPES buffer and 0.2% bovine serum albumin, pH 7.4) and then incubated for 15 min at room temperature with the test compounds diluted in assay buffer at dose-dependent concentrations. Subsequently, CXCL12-AF647 (25 ng/ml) was added to the compound-incubated cells. The cells were incubated for 30 min at room temperature. Thereafter, the cells were washed twice in assay buffer, fixed in 1% paraformaldehyde in PBS, and analyzed on the FL4 channel of a FACSCalibur flow cytometer equipped with a 635-nm red diode laser (Becton Dickinson, San Jose, CA, USA).
The percentages of inhibition of CXCL12-AF647 binding were calculated according to the formula: [1−((MFI−MFINC)/(MFIPC−MFINC))]×100 where MFI is the mean fluorescence intensity of the cells incubated with CXCL 12-AF647 in the presence of the inhibitor, MFINC is the mean fluorescence intensity measured in the negative control (i.e., autofluorescence of unlabeled cells), and MFIPC is the mean fluorescence intensity of the positive control (i.e., cells exposed to CXCL12-AF647 alone).

CXCR4 [2] = target: T1, CXCR4; assay: Intracellular CXCL-12-induced calcium mobilization assay (FLIPR), U87.CXCR4 cells; format: cell-based; design: expressed in transfected cells; host or cells: U87 (U87.CXCR4); conditions: CXCL-12 25-50 ng/ml, read-out: IC50 CXCL-12 Ca2+ flux U87.CXCR4+
Procedure: Intracellular calcium mobilization induced by chemokines or chemokine-derived peptides were evaluated using a calcium responsive fluorescent probe and a FLIPR system. The CXCR-4 transfected U87 cell line (U87.CXCR4) cells were seeded in gelatine-coated black-wall 96-well plates at 20,000 cells per well and incubated for 12 hours. Cells were then loaded with the fluorescent calcium probe Fluo-2 acetoxymethyl at 4 μM final concentration in assay buffer (Hanks' balanced salt solution with 20 mM HEPES buffer and 0.2% bovine serum albumin, pH 7.4) for 45 min at 37° C. The intracellular calcium mobilization induced by the CXCL-12 (25-50 ng/ml) was then measured at 37° C. by monitoring the fluorescence as a function of time in all the wells simultaneously using a fluorometric imaging plate reader (FLIPR Tetra, Molecular Devices).

BTK = BTK (Homo sapiens, UniProt Q06187); assay: BTK Kinase Enzyme System with ADP-Glo Kinase Assay; format: biochemical; design: Recombinant full-length human BTK was expressed by baculovirus in Sf9 insect cells; His (N); purchased Promega V9071; host or cells: Sf9 insect cells (baculovirus); conditions: 50 μM ATP
Chain of BTK (Q06187 whole entry): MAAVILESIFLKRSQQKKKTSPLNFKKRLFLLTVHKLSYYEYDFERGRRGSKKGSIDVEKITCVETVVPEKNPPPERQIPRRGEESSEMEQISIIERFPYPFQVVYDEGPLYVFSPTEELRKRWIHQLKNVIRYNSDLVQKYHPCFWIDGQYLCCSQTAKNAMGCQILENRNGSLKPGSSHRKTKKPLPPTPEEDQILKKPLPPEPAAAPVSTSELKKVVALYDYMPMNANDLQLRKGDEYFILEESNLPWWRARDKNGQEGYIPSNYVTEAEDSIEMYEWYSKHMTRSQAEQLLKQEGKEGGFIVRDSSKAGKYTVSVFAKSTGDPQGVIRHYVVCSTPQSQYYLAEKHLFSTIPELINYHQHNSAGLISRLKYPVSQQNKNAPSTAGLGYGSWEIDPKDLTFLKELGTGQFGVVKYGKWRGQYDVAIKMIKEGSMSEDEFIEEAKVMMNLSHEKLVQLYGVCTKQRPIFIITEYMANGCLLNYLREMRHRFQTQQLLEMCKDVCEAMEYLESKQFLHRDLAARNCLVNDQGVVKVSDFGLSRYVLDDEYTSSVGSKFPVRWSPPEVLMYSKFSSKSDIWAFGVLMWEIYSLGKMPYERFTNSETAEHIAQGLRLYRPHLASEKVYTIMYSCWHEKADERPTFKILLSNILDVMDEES
Procedure: Inhibition of BTK activity was evaluated using the BTK Kinase Enzyme System in combination with the ADP-Glo™ Kinase Assay Kit (V9071, Promega), according to manufacturer's instructions. Luminescence was detected on a PerkinElmer EnVision Multimode Plate Reader.
Recombinant full-length human BTK was expressed by baculovirus in Sf9 insect cells using an N-terminal His tag, MW ˜78 kDa. Substrate solution contained Poly (4:1 Glu, Tyr) Peptide Substrate. BTK Kinase Buffer consisted of: 40 mM Tris, pH 7.5; 20 mM MgCl2; 0.1 mg/ml BSA; 2 mM MnCl2; 50 μM DTT. ADP-Glo™ Reagents were thawed at ambient temperature; components of BTK Enzyme System, ADP and ATP were thawed on ice. Final assay conditions used 3 ng BTK, 50 μM ATP, and 0.2 mg/mL substrate. Compounds were tested at 11 dose points in duplicates, in 3-fold dilution with top concentration at 10 μM.
Assay performance was evaluated according to the reference compound Staurosporine, which was within 3-5 fold of published results and between different tests, with a Z′ value larger than 0.5, where applicable.

[3] = target: T2, BTK (Bruton tyrosine kinase) (Homo sapiens, UniProt Q06187); assay: BTK screening assay (33PanQinase Activity Assay, radiometric); format: biochemical; conditions: Inhibition of BTK, radiometric 33PanQinase Activity Assay, 3 μM ATP, 10 concentrations in singlicate, top 10 μM; read-out: 33PanQinase ® Radiometric IC50
T2 construct: GST or His (the text leaves open which); purchased Reaction Biology Europe GmbH Lot 012,11; host or cells: Sf9 insect cells or E. coli (not resolved)
T2 sequence (Q06187 whole entry): as above
Procedure: Inhibition of BTK activity was evaluated using a radiometric protein kinase assay (33PanQinase® Activity Assay) to measure the activity of BTK (Bruton tyrosine kinase).
Kinase assays were performed in 96-well ScintiPlates™ from Perkin Elmer (Boston, MA, USA) in a 50 μL reaction volume. The reaction cocktail was pipetted in four steps in the following order: 10 μL of non-radioactive ATP solution (in H2O); 25 μL of assay buffer/[γ-^33P]-ATP mixture; 5 μL of compound test sample in 10% DMSO; 10 μL of enzyme/substrate mixture.
BTK kinase was expressed in Sf9 insect cells or in E. coli as recombinant GST-fusion proteins or His-tagged proteins, either as full-length or enzymatically active fragments from human cDNAs, and purified by either GSH-affinity chromatography or immobilized metal. Purity was examined by SDS-PAGE/Coomassie staining, and identity confirmed by mass spectroscopy.
The reaction cocktails were incubated at 30° C. for 60 minutes. The reaction was stopped with 50 μL of 2% (v/v) H3PO4, plates were aspirated and washed two times with 200 μL 0.9% (w/v) NaCl. Incorporation of ^33Pi (counting of “cpm”) was determined with a microplate scintillation counter (Microbeta, Wallac).
The median value of the counts in wells containing assay buffer without enzyme, and without test compound was defined as “low control.” This value reflects unspecific binding of radioactivity to the plate in the absence of a protein kinase but in the presence of the substrate. The median value of the counts in wells containing assay buffer without test compound was defined as the “high control,” i.e. full activity in the absence of any inhibitor. The difference between high and low control was taken as 100% activity. Residual activity (in %) was calculated using the following formula: Res. Activity (%)=100×[(cpm of compound-low control)/(high control-low control)].
The fitting method used was a least-squares fit.

Ramos cell line = Ramos cell line viability assay (CellTiter-Glo, 72 hr); format: cell-based; conditions: Homo sapiens
Procedure: Inhibition of non-Hodgkin lymphoma B-cell proliferation by compounds of the present invention was evaluated in a Ramos cell line. Ramos is a B lymphocyte cell line that was derived from a patient with Burkitt's Lymphoma.
Cell viability was analyzed with the CellTiter-Glo® Luminescent Cell Viability Assay Kit (G7572, Promega), according to the manufacturer's instruction. Cells were seeded into a 96-well/384-well plate and then incubated in 5% CO2 at 37° C. overnight. Compounds were added to the cells, with 9-10 dose points in duplicates in 3-fold dilution from a top concentration of 30 μM, and incubated in 5% CO2 at 37° C. for 72 hr. The 96-well/384-well plate was equilibrated at room temperature for 30 min. 50 μl/25 μl of CellTiter-Glo® Reagent was added to each well and mixed for 2 min on an orbital shaker to induce cell lysis. The 96-well/384-well plate was incubated at room temperature for 10 min to stabilize luminescent signal. Luminescence was detected on a PerkinElmer EnVision Multimode Plate Reader as relative luminescence units (RLU).

[4] = class, read-out: Ramos viability IC50

T1 sequence (P61073 whole entry): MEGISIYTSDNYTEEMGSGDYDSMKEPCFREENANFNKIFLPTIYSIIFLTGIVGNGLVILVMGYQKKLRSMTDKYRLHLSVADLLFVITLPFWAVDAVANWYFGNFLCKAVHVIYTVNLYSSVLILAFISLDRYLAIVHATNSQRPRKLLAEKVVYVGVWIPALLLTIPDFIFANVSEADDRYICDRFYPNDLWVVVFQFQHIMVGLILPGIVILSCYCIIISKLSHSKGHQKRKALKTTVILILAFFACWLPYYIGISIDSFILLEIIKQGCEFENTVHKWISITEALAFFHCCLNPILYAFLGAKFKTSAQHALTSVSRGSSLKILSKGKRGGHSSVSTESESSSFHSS

SMILES | IC50 (CXCR4 [1]) [nM] | IC50 (CXCR4 [2]) [nM] | IC50 (BTK) [nM] | IC50 [3] [nM] | IC50 (Ramos cell line; [4]) [nM] | IC50 (Ramos cell line; read-out: IC50) [nM]
Cc1cc(-c2ncnc3[nH]c(C(=O)NCCN4[C@@H](c5ncccc5C)CCC[C@H]4c4ncccc4C)cc23)ccc1CNC(=O)c1ccc(C(C)(C)C)cc1 [Compound I-3] | 100 to 1000 | > 2500 | 1 to 100 | 1 to 100 | – | –
Cc1cccnc1[C@H]1CCC[C@@H](c2ncccc2C)N1CCNC(=O)[C@@H]1CC[C@@H](Nc2ncnc3[nH]cc(C(=O)c4ccc(Oc5ccccc5)cc4Cl)c23)CO1 [Compound I-17] | 1000 to 2500 | > 2500 | 1 to 100 | 1 to 100 | – | –
Cc1cccnc1[C@H]1CCC[C@@H](c2ncccc2C)N1CCNC[C@@H]1CC[C@@H](Nc2ncnc3[nH]cc(C(=O)c4ccc(Oc5ccccc5)cc4Cl)c23)CO1 [Compound I-15, (4-((3R,6S)-6-((2-((2R,6S)-2,6-bis(3-methylpyridin-2-yl)piperidin-1-yl)ethylamino)methyl)tetrahydro-2H-pyran-3-ylamino)-7H-pyrrolo[2,3-d]pyrimidin-5-yl) (2-chloro-4-phenoxyphenyl) methanone] | 1000 to 2500 | > 2500 | 1000 to 2500 | 1000 to 2500 | – | –
Cc1cccnc1[C@H]1CCC[C@@H](c2ncccc2C)N1CCCCNC[C@@H]1CC[C@@H](Nc2ncnc3[nH]cc(C(=O)c4ccc(Oc5ccccc5)cc4Cl)c23)CO1 [Compound I-13, (4-((3R,6S)-6-((4-((2R,6S)-2,6-bis(3-methylpyridin-2-yl)piperidin-1-yl)butylamino)methyl)tetrahydro-2H-pyran-3-ylamino)-7H-pyrrolo[2,3-d]pyrimidin-5-yl) (2-chloro-4-phenoxyphenyl) methanone] | 100 to 1000 | > 2500 | 100 to 1000 | 100 to 1000 | – | –
Cc1cccnc1[C@H]1CCC[C@@H](c2ncccc2C)N1CCCCOC(=O)[C@@H]1CC[C@@H](Nc2ncnc3[nH]cc(C(=O)c4ccc(Oc5ccccc5)cc4Cl)c23)CO1 [Compound I-14] | > 2500 | > 2500 | 1 to 100 | 1 to 100 | – | –
Cc1cccnc1[C@H]1CCC[C@@H](c2ncccc2C)N1CCN1CCN(C(=O)c2ccc(-c3cc4c(-c5cccc(NC(=O)c6ccc(C(C)(C)C)cc6)c5C)ncnc4[nH]3)cc2)CC1 [Compound I-7] | 100 to 1000 | > 2500 | 1 to 100 | 1 to 100 | 1500 to 2000 | 1620
Cc1cccnc1[C@H]1CCC[C@@H](c2ncccc2C)N1CCNC1CN(C(=O)c2ccc(-c3cc4c(-c5cccc(NC(=O)c6ccccc6)c5C)ncnc4[nH]3)cc2)C1 [Compound I-9] | 1 to 100 | 1 to 100 | 100 to 1000 | 100 to 1000 | 2000 to 4000 | 3540
Cc1cc(-c2ncnc3[nH]c(C(=O)N(C)CCCN4[C@@H](c5ncccc5C)CCC[C@H]4c4ncccc4C)cc23)ccc1CNC(=O)c1ccc(C(C)(C)C)cc1 [Compound I-5] | 100 to 1000 | > 2500 | 100 to 1000 | 100 to 1000 | – | –
Cc1cc(-c2ncnc3[nH]c(C(=O)NCCCCN4[C@@H](c5ncccc5C)CCC[C@H]4c4ncccc4C)cc23)ccc1CNC(=O)c1ccc(C(C)(C)C)cc1 [Compound I-6] | 1 to 100 | > 2500 | 1 to 100 | 1 to 100 | 1500 to 2000 | 1550

Continued, values first:

IC50 (CXCR4 [1]) [nM] | IC50 (CXCR4 [2]) [nM] | IC50 (BTK) [nM] | IC50 [3] [nM] | IC50 (Ramos cell line; [4]) [nM] | IC50 (Ramos cell line; read-out: IC50) [nM] | SMILES
1 to 100 | > 2500 | 100 to 1000 | 100 to 1000 | – | – | Cc1cccnc1[C@H]1CCC[C@@H](c2ncccc2C)N1CCCCNC(=O)c1cc2c(-c3ccc(CNC(=O)c4ccc(C(C)(C)C)cc4)cc3)ncnc2[nH]1 [Compound I-1]
1 to 100 | 100 to 1000 | 1 to 100 | 1 to 100 | ≥ 4000 | 11100 | Cc1cccnc1[C@H]1CCC[C@@H](c2ncccc2C)N1CCNC1CN(C(=O)c2ccc(-c3cc4c(-c5cccc(NC(=O)c6ccc(C(C)(C)C)cc6)c5C)ncnc4[nH]3)cc2)C1 [Compound I-8]
1 to 100 | > 2500 | 1 to 100 | 1 to 100 | – | – | Cc1cc(-c2ncnc3[nH]c(C(=O)NCCCN4[C@@H](c5ncccc5C)CCC[C@H]4c4ncccc4C)cc23)ccc1CNC(=O)c1ccc(C(C)(C)C)cc1 [Compound I-4]
1 to 100 | > 2500 | 1000 to 2500 | 1000 to 2500 | – | – | Cc1cccnc1[C@H]1CCC[C@@H](c2ncccc2C)N1CCCCN(C)C(=O)c1cc2c(-c3ccc(CNC(=O)c4ccc(C(C)(C)C)cc4)cc3)ncnc2[nH]1 [Compound I-2]
1 to 100 | 1000 to 2500 | 1 to 100 | 1 to 100 | 2000 to 4000 | 2780 | Cc1cc(-c2ccnc(Nc3cnn(CCCN4[C@@H](c5ncccc5C)CCC[C@H]4c4ncccc4C)c3)n2)ccc1CNC(=O)N1CC(OC(C)C)C1 [Compound I-12, N-(4-(2-(1-(3-((2S,6R)-2,6-bis(3-methylpyridin-2-yl)piperidin-1-yl)propyl)-1H-pyrazol-4-ylamino)pyrimidin-4-yl)-2-methylbenzyl)-3-isopropoxyazetidine-1-carboxamide]
